Test results taken from PubChem BioAssay (NCI).
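Cells were grown in 96-well plates and exposed to each compound for 48 hours at five concentrations; endpoints were interpolated linearly between bracketing concentrations, or set to the highest concentration if not reached. TGI: total growth inhibition.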

Legend:
Assay in all cases: growth of human tumour cells (NCI), 48 h
K-562 leukemia = tested on: K-562 leukemia
A549 NSCLC = tested on: A549 NSCLC
OVCAR-4 ovarian = tested on: OVCAR-4 ovarian
IGROV1 ovarian = tested on: IGROV1 ovarian
KM20L2 colon = tested on: KM20L2 colon
SF-539 CNS = tested on: SF-539 CNS
U251 CNS = tested on: U251 CNS
MALME-3M melanoma = tested on: MALME-3M melanoma
SF-268 CNS = tested on: SF-268 CNS
SK-OV-3 ovarian = tested on: SK-OV-3 ovarian
NCI-H226 lung = tested on: NCI-H226 lung
LXFL 529 NSCLC = tested on: LXFL 529 NSCLC
KM12 colon = tested on: KM12 colon
SNB-78 CNS = tested on: SNB-78 CNS
SK-MEL-5 melanoma = tested on: SK-MEL-5 melanoma
SNB-19 CNS = tested on: SNB-19 CNS
SW-620 colon = tested on: SW-620 colon
RXF-631 renal = tested on: RXF-631 renal
DLD-1 colon = tested on: DLD-1 colon
RPMI-8226 leukemia = tested on: RPMI-8226 leukemia
HOP-18 NSCLC = tested on: HOP-18 NSCLC
SR leukemia = tested on: SR leukemia
OVCAR-8 ovarian = tested on: OVCAR-8 ovarian
NCI-H460 lung = tested on: NCI-H460 lung
786-0 renal = tested on: 786-0 renal
COLO 205 colon = tested on: COLO 205 colon
SNB-75 CNS = tested on: SNB-75 CNS
OVCAR-3 ovarian = tested on: OVCAR-3 ovarian
HCT-15 colon = tested on: HCT-15 colon
SK-MEL-28 melanoma = tested on: SK-MEL-28 melanoma
UACC-62 melanoma = tested on: UACC-62 melanoma
CAKI-1 renal = tested on: CAKI-1 renal
SN12C renal = tested on: SN12C renal
DMS 114 small cell lung = tested on: DMS 114 small cell lung
DMS 273 small cell lung = tested on: DMS 273 small cell lung
NCI-H522 lung = tested on: NCI-H522 lung
HOP-62 NSCLC = tested on: HOP-62 NSCLC
M19-MEL melanoma = tested on: M19-MEL melanoma
SK-MEL-2 melanoma = tested on: SK-MEL-2 melanoma
TK-10 renal = tested on: TK-10 renal
UACC-257 melanoma = tested on: UACC-257 melanoma
A498 renal = tested on: A498 renal
ACHN renal = tested on: ACHN renal
HCT-116 colon = tested on: HCT-116 colon
EKVX NSCLC = tested on: EKVX NSCLC
RXF 393 renal = tested on: RXF 393 renal
UO-31 renal = tested on: UO-31 renal
HL-60(TB) leukemia = tested on: HL-60(TB) leukemia
MOLT-4 leukemia = tested on: MOLT-4 leukemia
HCC-2998 colon = tested on: HCC-2998 colon
M14 melanoma = tested on: M14 melanoma

Measured: TGI

O=c1ccn(C2(CO)C=C(CO)C(O)C2O)c(=O)[nH]1 (stereo unspecified)
> 25.7 µM: all assays above
